# Laboratory results reported in patent US20020002171A1, “Materials and methods for killing nematodes and nematode eggs” (priority 2000, published 2002).
# Test system: Caenorhabditis elegans
# Assay: C. elegans L1 nematicidal dose response in 96-well plates, 5 day visual score (Example 2; same procedure for Example 7, Table 3)
# Assay type: in vivo
# Design: key to 5 Day Visual Score V1 / 5 Day Visual Score V2 / 5 Day Visual Score V3 / 5 Day Visual Score V4 / 5 Day Visual Score V6 / 5 Day Visual Score V5 / Initial HTS Run Visual Score / Follow-up HTS Run Visual Score: Dead: only stiff L1s (no movement); Dead (L4): worms are dead, but at a later larval stage; majority of worms are L1 (based on size) worms move when plate is tapped; majority of worms are L2 (based on size); majority of worms are L3 (based on size); majority of worms are L4 (based on size); AD: majority of worms are adult; #AD: 5 adult worms or less; B!: sterile (0-25 progeny); B: low broodsize (25-100 progeny); ˜B: moderate broodsize (100-250 progeny); <: reduced broodsize (250-500 progeny); OK: no effect (˜1000+ progeny)
# Details: Follow-up HTS run
# How it was run: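 L1 larvae, 20 per well in NGM with 1% E. coli HB101 and antibiotic/antimycotic, exposed to six 3-fold dilutions from 70 μM down to 0.3 μM (1.4% DMSO at top). Held at 20° C; viability scored visually under 100× dissecting microscope on day 5.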
SMILES,Follow-up HTS Run % Run,Follow-up HTS Run mOD,Follow-up HTS Run Visual Score
CCN(Cc1ccccc1)c1nc(N2CCN(c3ccc(F)cc3)CC2)ns1 [compound 237],117%,189 mOD,–
CCOC(=O)CCN(Cc1ccccc1)c1nc(N2CCN(c3ccc(F)cc3)CC2)ns1 [compound 238],122%,197 mOD,L4/AD/B
CCCCN(Cc1ccccc1)c1nc(N2CCCC(C(=O)N(CC)CC)C2)ns1 (stereo not drawn) [compound 239],132%,212 mOD,B (low broodsize (25-100 progeny))
Fc1ccc(CCNc2nsc(N3CCN(c4ccc(F)cc4)CC3)n2)cc1 [compound 240],86%,138 mOD,Dead
CCN(Cc1ccccc1)c1nc(NCCc2ccc(F)cc2)ns1 [compound 241],88%,141 mOD,B (low broodsize (25-100 progeny))
CCOC(=O)CCN(Cc1ccccc1)c1nc(NCCc2ccc(F)cc2)ns1 [compound 242],87%,140 mOD,–

# Same assay, conditions: Initial HTS run
SMILES,Initial HTS Run % Run,Initial HTS Run mOD,Initial HTS Run Visual Score
CCN(Cc1ccccc1)c1nc(N2CCN(c3ccc(F)cc3)CC2)ns1 [compound 237],133%,146 mOD,–
CCOC(=O)CCN(Cc1ccccc1)c1nc(N2CCN(c3ccc(F)cc3)CC2)ns1 [compound 238],135%,148 mOD,L4/Ad/B!
CCCCN(Cc1ccccc1)c1nc(N2CCCC(C(=O)N(CC)CC)C2)ns1 (stereo not drawn) [compound 239],134%,147 mOD,L4/AD/B!
Fc1ccc(CCNc2nsc(N3CCN(c4ccc(F)cc4)CC3)n2)cc1 [compound 240],101%,111 mOD,–
CCN(Cc1ccccc1)c1nc(NCCc2ccc(F)cc2)ns1 [compound 241],114%,125 mOD,–
CCOC(=O)CCN(Cc1ccccc1)c1nc(NCCc2ccc(F)cc2)ns1 [compound 242],106%,117 mOD,Dead (L3?)

# Same assay, conditions: dose response, dilution V1, day 5
row,SMILES,5 Day Visual Score V1
1,CCN(Cc1ccccc1)c1nc(N2CCN(c3ccc(F)cc3)CC2)ns1 [compound 237],L1
2,CCOC(=O)CCN(Cc1ccccc1)c1nc(N2CCN(c3ccc(F)cc3)CC2)ns1 [compound 238],L1
3,CCCCN(Cc1ccccc1)c1nc(N2CCCC(C(=O)N(CC)CC)C2)ns1 (stereo not drawn) [compound 239],L2
4,Fc1ccc(CCNc2nsc(N3CCN(c4ccc(F)cc4)CC3)n2)cc1 [compound 240],Dead

# Same assay, conditions: dose response, dilution V2, day 5
row,SMILES,5 Day Visual Score V2
1,CCN(Cc1ccccc1)c1nc(N2CCN(c3ccc(F)cc3)CC2)ns1 [compound 237],L1
2,CCCCN(Cc1ccccc1)c1nc(N2CCCC(C(=O)N(CC)CC)C2)ns1 (stereo not drawn) [compound 239],B (low broodsize (25-100 progeny))
3,Fc1ccc(CCNc2nsc(N3CCN(c4ccc(F)cc4)CC3)n2)cc1 [compound 240],L1
4,CCN(Cc1ccccc1)c1nc(NCCc2ccc(F)cc2)ns1 [compound 241],˜B (moderate broodsize (100-250 progeny))
5,CCOC(=O)CCN(Cc1ccccc1)c1nc(NCCc2ccc(F)cc2)ns1 [compound 242],B (low broodsize (25-100 progeny))

# Same assay, conditions: dose response, dilution V3, day 5
row,SMILES,5 Day Visual Score V3
1,CCN(Cc1ccccc1)c1nc(N2CCN(c3ccc(F)cc3)CC2)ns1 [compound 237],L1
2,CCOC(=O)CCN(Cc1ccccc1)c1nc(N2CCN(c3ccc(F)cc3)CC2)ns1 [compound 238],< (reduced broodsize (250-500 progeny))
3,CCCCN(Cc1ccccc1)c1nc(N2CCCC(C(=O)N(CC)CC)C2)ns1 (stereo not drawn) [compound 239],OK (no effect (˜1000+ progeny))
4,CCN(Cc1ccccc1)c1nc(NCCc2ccc(F)cc2)ns1 [compound 241],OK (no effect (˜1000+ progeny))
5,CCOC(=O)CCN(Cc1ccccc1)c1nc(NCCc2ccc(F)cc2)ns1 [compound 242],OK (no effect (˜1000+ progeny))

# Same assay, conditions: dose response, dilution V4, day 5
row,SMILES,5 Day Visual Score V4
1,CCN(Cc1ccccc1)c1nc(N2CCN(c3ccc(F)cc3)CC2)ns1 [compound 237],< (reduced broodsize (250-500 progeny))
2,CCOC(=O)CCN(Cc1ccccc1)c1nc(N2CCN(c3ccc(F)cc3)CC2)ns1 [compound 238],< (reduced broodsize (250-500 progeny))
3,CCCCN(Cc1ccccc1)c1nc(N2CCCC(C(=O)N(CC)CC)C2)ns1 (stereo not drawn) [compound 239],OK (no effect (˜1000+ progeny))
4,Fc1ccc(CCNc2nsc(N3CCN(c4ccc(F)cc4)CC3)n2)cc1 [compound 240],˜B (moderate broodsize (100-250 progeny))
5,CCN(Cc1ccccc1)c1nc(NCCc2ccc(F)cc2)ns1 [compound 241],OK (no effect (˜1000+ progeny))
6,CCOC(=O)CCN(Cc1ccccc1)c1nc(NCCc2ccc(F)cc2)ns1 [compound 242],OK (no effect (˜1000+ progeny))

# Same assay, conditions: dose response, dilution V5, day 5
row,SMILES,5 Day Visual Score V5
1,CCN(Cc1ccccc1)c1nc(N2CCN(c3ccc(F)cc3)CC2)ns1 [compound 237],OK (no effect (˜1000+ progeny))
2,CCOC(=O)CCN(Cc1ccccc1)c1nc(N2CCN(c3ccc(F)cc3)CC2)ns1 [compound 238],OK (no effect (˜1000+ progeny))
3,CCCCN(Cc1ccccc1)c1nc(N2CCCC(C(=O)N(CC)CC)C2)ns1 (stereo not drawn) [compound 239],OK (no effect (˜1000+ progeny))
4,Fc1ccc(CCNc2nsc(N3CCN(c4ccc(F)cc4)CC3)n2)cc1 [compound 240],< (reduced broodsize (250-500 progeny))
5,CCN(Cc1ccccc1)c1nc(NCCc2ccc(F)cc2)ns1 [compound 241],OK (no effect (˜1000+ progeny))
6,CCOC(=O)CCN(Cc1ccccc1)c1nc(NCCc2ccc(F)cc2)ns1 [compound 242],OK (no effect (˜1000+ progeny))

# Same assay, conditions: dose response, dilution V6, day 5
row,SMILES,5 Day Visual Score V6
1,CCN(Cc1ccccc1)c1nc(N2CCN(c3ccc(F)cc3)CC2)ns1 [compound 237],OK (no effect (˜1000+ progeny))
2,CCOC(=O)CCN(Cc1ccccc1)c1nc(N2CCN(c3ccc(F)cc3)CC2)ns1 [compound 238],OK (no effect (˜1000+ progeny))
3,CCCCN(Cc1ccccc1)c1nc(N2CCCC(C(=O)N(CC)CC)C2)ns1 (stereo not drawn) [compound 239],OK (no effect (˜1000+ progeny))
4,Fc1ccc(CCNc2nsc(N3CCN(c4ccc(F)cc4)CC3)n2)cc1 [compound 240],OK (no effect (˜1000+ progeny))
5,CCN(Cc1ccccc1)c1nc(NCCc2ccc(F)cc2)ns1 [compound 241],OK (no effect (˜1000+ progeny))
6,CCOC(=O)CCN(Cc1ccccc1)c1nc(NCCc2ccc(F)cc2)ns1 [compound 242],OK (no effect (˜1000+ progeny))
